Test results published in US11046672B2, “Indolinones compounds and their use in the treatment of fibrotic diseases” (RESPIVERT LIMITED, priority 2015, dated 2021).
Like-named read-outs stand apart in the source and are kept apart here.

Assays:
PDGFRβ [1] = target: T1, PDGFRβ (Homo sapiens (Human), UniProt P09619); conditions: read-out: Ki PDGFRβ; mean, n = 2 unless otherwise indicated
PAMPA permeability assay = format: in vitro ADME; conditions: PAMPA, donor and acceptor compartments
[2] = Pharmacokinetic measurements in mice (intravenous and intra-nasal dosing); format: in vivo; conditions: mouse; for concentration at 6 h / concentration at 0.1 h / concentration at 1.5 h / concentration at 24 h: lung, read-out: lung concentration (nM) at time (h); for Kp at 6 h / Kp at 0.1 h / Kp at 1.5 h: lung/plasma
PDGFRβ [3] = target: T1, PDGFRβ; experiment: PDGF-BB induced phosphorylation of PDGFRβ in fibroblasts (MRC5 cells, HTRF); format: cell-based; conditions: MRC5 cells; n = 1 unless otherwise indicated; read-out: PDGFBB-induced PDGFRβ phosphorylation in MRC5 cells (IC50)
PDGFRβ [4] = target: T1, PDGFRβ; experiment: Duration of action (washout) against PDGF-BB induced phosphorylation of PDGFRβ in human fetal lung fibroblast cells; format: cell-based; conditions: MRC-5 cells, after wash-out, rhuPDGF-BB; experiments in Groups 1-4
[5] = Pharmacokinetic measurements in rats (intravenous and intra-tracheal dosing); format: in vivo; conditions: rat; for concentration at 6 h / concentration at 0.1 h / concentration at 1.5 h / concentration at 24 h: lung, read-out: lung concentration (nM) at time (h); for Kp at 6 h / Kp at 0.1 h / Kp at 1.5 h / Kp at 24 h: lung/plasma
MRC5 cells = experiment: Cell viability assay in MRC5 cells (MTT)

T1 sequence (P09619 33-1106): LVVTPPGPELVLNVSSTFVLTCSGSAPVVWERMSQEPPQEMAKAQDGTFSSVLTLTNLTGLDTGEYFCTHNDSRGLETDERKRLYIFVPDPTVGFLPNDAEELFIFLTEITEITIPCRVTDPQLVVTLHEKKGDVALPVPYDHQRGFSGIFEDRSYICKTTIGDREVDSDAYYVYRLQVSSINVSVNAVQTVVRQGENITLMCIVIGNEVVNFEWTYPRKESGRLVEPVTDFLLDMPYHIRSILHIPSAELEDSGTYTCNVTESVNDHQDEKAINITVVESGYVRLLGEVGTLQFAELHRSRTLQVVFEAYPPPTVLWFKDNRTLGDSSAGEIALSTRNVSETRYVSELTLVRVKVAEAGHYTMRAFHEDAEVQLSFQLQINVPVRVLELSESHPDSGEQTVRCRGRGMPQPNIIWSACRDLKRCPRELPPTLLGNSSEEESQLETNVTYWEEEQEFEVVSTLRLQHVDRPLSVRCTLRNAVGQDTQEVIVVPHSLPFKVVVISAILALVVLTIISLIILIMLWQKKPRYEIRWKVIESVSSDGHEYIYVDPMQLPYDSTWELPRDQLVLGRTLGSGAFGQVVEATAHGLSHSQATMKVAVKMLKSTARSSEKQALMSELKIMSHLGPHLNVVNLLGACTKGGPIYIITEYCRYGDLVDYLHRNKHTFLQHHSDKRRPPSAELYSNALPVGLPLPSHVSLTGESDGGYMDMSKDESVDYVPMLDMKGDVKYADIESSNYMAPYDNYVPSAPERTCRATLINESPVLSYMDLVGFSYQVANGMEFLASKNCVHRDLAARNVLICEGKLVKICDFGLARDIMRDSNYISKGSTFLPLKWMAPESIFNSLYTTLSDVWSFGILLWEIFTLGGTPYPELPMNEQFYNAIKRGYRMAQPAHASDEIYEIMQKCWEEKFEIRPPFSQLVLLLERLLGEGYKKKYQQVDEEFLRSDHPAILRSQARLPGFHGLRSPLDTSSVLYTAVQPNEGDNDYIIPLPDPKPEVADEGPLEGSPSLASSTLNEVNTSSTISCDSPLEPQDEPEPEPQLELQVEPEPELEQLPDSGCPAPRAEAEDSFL

Ki (PDGFRβ [1]): 7.13 nM | % Recovery (PAMPA permeability assay): 60.9% | recovery at 5 hr, 10 μM (PAMPA permeability assay; pH 7, PAMPA): 50.4% | concentration at 6 h ([2]; male, C57BL/6J, iv, 0.2 mg/kg, i.v. dosing, 6 h, mean): 306 nM | concentration at 0.1 h ([2]; male, C57BL/6J, iv, i.v. dosing, 0.1 h, mean): 868 nM | concentration at 1.5 h ([2]; male, C57BL/6J, iv, i.v. dosing, 1.5 h, mean): 416 nM | concentration at 24 h ([2]; male, C57BL/6J, iv, i.v. dosing, 24 h, mean): 20 nM | concentration at 0.1 h ([2]; male, C57BL/6J, other: intra-nasal, i.n. dosing, 0.1 h, mean): 3510 nM | concentration at 1.5 h ([2]; male, C57BL/6J, other: intra-nasal, i.n. dosing, 1.5 h, mean): 1730 nM | concentration at 6 h ([2]; male, C57BL/6J, other: intra-nasal, i.n. dosing, 6 h, mean): 1320 nM | concentration at 24 h ([2]; male, C57BL/6J, other: intra-nasal, i.n. dosing, 24 h, mean): 363 nM | Kp at 6 h ([2]; male, C57BL/6J, iv, 0.2 mg/kg, i.v. dosing, 6 h, read-out: lung/plasma ratio at time(h)): 152 | Kp at 0.1 h ([2]; male, C57BL/6J, iv, i.v. dosing, 0.1 h, read-out: lung/plasma ratio at time(h)): 13 | Kp at 1.5 h ([2]; male, C57BL/6J, iv, i.v. dosing, 1.5 h, read-out: lung/plasma ratio at time(h)): 39 | Kp at 0.1 h ([2]; male, C57BL/6J, other: intra-nasal, i.n. dosing, 0.1 h, read-out: lung/plasma conc ratio at time(h)): 209 | Kp at 1.5 h ([2]; male, C57BL/6J, other: intra-nasal, i.n. dosing, 1.5 h, read-out: lung/plasma conc ratio at time(h)): 688 | Kp at 6 h ([2]; male, C57BL/6J, other: intra-nasal, i.n. dosing, 6 h, read-out: lung/plasma conc ratio at time(h)): 1130 | clearance ([2]; male, C57BL/6J, whole blood, iv): 111 mL/min/kg | MRT ([2]; male, C57BL/6J, whole blood, iv, i.v. dosing, mean): 3.2 h | Vd ([2]; male, C57BL/6J, whole blood, iv, i.v. dosing, mean, read-out: Vss): 21 L/kg | half-life ([2]; male, C57BL/6J, whole blood, iv, i.v. dosing, mean, read-out: t½ (converted)): 2.6 h | Lung conc i.n./i.v. Ratio at time (h) ([2]; 0.1 h): 4.0 | Lung conc i.n./i.v. Ratio at time (h) ([2]; 1.5 h): 4.2 | Lung conc i.n./i.v. Ratio at time (h) ([2]; 6 h): 4.3 | Lung conc i.n./i.v. Ratio at time (h) ([2]; 24 h): 18.2 | BAV (%) ([2]; i.n. dosing (i.n. dose 1 nintedanib, 0.2 examples), mean): 14% | BAL % administered dose at time (h) ([2]; i.n. dosing, 0.1 h): 1% | BAL % administered dose at time (h) ([2]; i.n. dosing, 1.5 h): 0.1% | BAL % administered dose at time (h) ([2]; i.n. dosing, 6 h): 0.3% | BAL % administered dose at time (h) ([2]; i.n. dosing, 24 h): 0.1% | BAL % administered dose at time (h) ([2]; i.v. dosing, 0.1 h): 0.07% | BAL % administered dose at time (h) ([2]; i.v. dosing, 1.5 h): 0.02% | BAL % administered dose at time (h) ([2]; i.v. dosing, 6 h): 0.01% | BAL % administered dose at time (h) ([2]; i.v. dosing, 24 h): 0.02% | BAV (%) ([2]; oral dosing (oral dose 60 mg/kg nintedanib, 10 mg/kg examples), mean): 13% | IC50 (PDGFRβ [3]): 7.74 nM | % phos: percentage phosphorylation after wash-out relative to maximal phosphorylation (100%) (PDGFRβ [4]): 37.3% | concentration at 6 h ([5]; male, CD, iv, 0.1 mg/kg, i.v. dosing, 6 h): 92 nM | concentration at 0.1 h ([5]; male, CD, iv, i.v. dosing, 0.1 h): 475 nM | concentration at 1.5 h ([5]; male, CD, iv, i.v. dosing, 1.5 h): 251 nM | concentration at 24 h ([5]; male, CD, iv, i.v. dosing, 24 h): 52 nM | concentration at 0.1 h ([5]; male, CD, other: intra-tracheal, i.t. dosing, 0.1 h): 3590 nM | concentration at 1.5 h ([5]; male, CD, other: intra-tracheal, i.t. dosing, 1.5 h): 1710 nM | concentration at 6 h ([5]; male, CD, other: intra-tracheal, i.t. dosing, 6 h): 629 nM | concentration at 24 h ([5]; male, CD, other: intra-tracheal, i.t. dosing, 24 h): 747 nM | Kp at 6 h ([5]; male, CD, iv, 0.1 mg/kg, i.v. dosing, 6 h, read-out: lung/plasma ratio at time(h)): 26 | Kp at 0.1 h ([5]; male, CD, iv, i.v. dosing, 0.1 h, read-out: lung/plasma ratio at time(h)): 24 | Kp at 1.5 h ([5]; male, CD, iv, i.v. dosing, 1.5 h, read-out: lung/plasma ratio at time(h)): 36 | Kp at 24 h ([5]; male, CD, iv, i.v. dosing, 24 h, read-out: lung/plasma ratio at time(h)): 98 | Kp at 0.1 h ([5]; male, CD, other: intra-tracheal, i.t. dosing, 0.1 h, read-out: lung/plasma conc ratio at time(h)): 74 | Kp at 1.5 h ([5]; male, CD, other: intra-tracheal, i.t. dosing, 1.5 h, read-out: lung/plasma conc ratio at time(h)): 362 | Kp at 6 h ([5]; male, CD, other: intra-tracheal, i.t. dosing, 6 h, read-out: lung/plasma conc ratio at time(h)): 461 | Kp at 24 h ([5]; male, CD, other: intra-tracheal, i.t. dosing, 24 h, read-out: lung/plasma conc ratio at time(h)): 1520 | MRT ([5]; male, CD, plasma, iv, i.v. dosing): 8 h | clearance ([5]; male, CD, plasma, iv, i.v. dosing (i.v. dose 0.1-0.5 per compound)): 48 mL/min/kg | Vd ([5]; male, CD, plasma, iv, i.v. dosing, read-out: Vss): 23 L/kg | half-life ([5]; male, CD, plasma, iv, i.v. dosing, read-out: t½ (converted)): 7.6 h | Lung conc i.t./i.v. Ratio at time (h) ([5]; 0.1 h): 7.6 | Lung conc i.t./i.v. Ratio at time (h) ([5]; 1.5 h): 6.8 | Lung conc i.t./i.v. Ratio at time (h) ([5]; 6 h): 6.8 | Lung conc i.t./i.v. Ratio at time (h) ([5]; 24 h): 14.4 | i.t. BAV (%) ([5]; i.t. dosing (i.t. dose 0.1-0.5 per compound)): 70% | BAL % administered dose at time (h) ([5]; i.t. dosing, 0.1 h): 3.1% | BAL % administered dose at time (h) ([5]; i.t. dosing, 1.5 h): 0.6% | BAL % administered dose at time (h) ([5]; i.t. dosing, 6 h): 0.3% | BAL % administered dose at time (h) ([5]; i.t. dosing, 24 h): 0.2% | BAL % administered dose at time (h) ([5]; i.v. dosing, 0.1 h): 0.04% | BAL % administered dose at time (h) ([5]; i.v. dosing, 1.5 h): 0.01% | BAL % administered dose at time (h) ([5]; i.v. dosing, 6 h): 0.01% | BAL % administered dose at time (h) ([5]; i.v. dosing, 24 h): 0.01% | Oral BAV (%) ([5]; oral dose 3 mg/kg): 4%
SMILES: COC(=O)c1cc2c(cc1C)/C(=C(/Nc1ccc(C(=O)NOCCN(C)C)c(C)c1)c1ccccc1)C(=O)N2 [Example 5, (Z)-Methyl 3-(((4-((2-(dimethylamino)ethoxy)carbamoyl)-3-methylphenyl)amino)(phenyl)methylene)-5-methyl-2-oxoindoline-6-carboxylate]
Cell viability at 100 nM (%) (MRC5 cells; 100 nM): 100.6% | Cell viability at 300 nM (%) (MRC5 cells; 300 nM): 92.5% | Cell viability at 1000 nM (%) (MRC5 cells; 1000 nM): 71.5%
